Laboratory results from US6476032B2, “2,3,4,4a-tetrahydro-1H-pyrazino[1,2-a]quinoxalin-5(6H)one derivatives” (Wyeth, priority 1998, dated 2002).
Where a name gives a salt, the structure may show the parent alone. Read-outs that look alike come from different tables or passages of the source.

Experiments:
[1] = molecular target: T1, human 5-hydroxy-tryptamine2C (h5HT2C) receptor (Homo sapiens, UniProt P28335); assay: 5HT2C Receptor Binding Test Procedure ([125I] DOI)
T1 construct: expressed in transfected cells; host or cells: CHO (Chinese Hamster Ovary) cells; membranes
T1 sequence (P28335 33-458): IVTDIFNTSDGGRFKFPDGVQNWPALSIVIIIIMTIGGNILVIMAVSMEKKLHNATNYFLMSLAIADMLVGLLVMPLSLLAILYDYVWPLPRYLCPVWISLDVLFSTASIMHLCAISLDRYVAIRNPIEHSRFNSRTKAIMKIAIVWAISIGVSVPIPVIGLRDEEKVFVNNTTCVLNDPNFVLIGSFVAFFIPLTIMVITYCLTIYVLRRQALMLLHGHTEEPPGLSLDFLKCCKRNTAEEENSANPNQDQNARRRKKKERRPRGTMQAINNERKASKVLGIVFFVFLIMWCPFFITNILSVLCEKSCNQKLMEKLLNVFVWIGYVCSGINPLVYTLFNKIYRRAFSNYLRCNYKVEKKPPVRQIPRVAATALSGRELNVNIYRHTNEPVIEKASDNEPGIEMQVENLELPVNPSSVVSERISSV

human 5-HT2C receptor = molecular target: T2, human 5-HT2C receptor (Homo sapiens, UniProt P28335); assay: Stimulation of [3H] Inositol Monophosphate Production by 5HT2C Agonists; assay type: cell-based
T2 construct: expressed in transfected cells; host or cells: CHO cells
T2 sequence (P28335 33-458): T1 sequence (P28335 33-458)
Procedure: One (1) ml of maintenance medium containing 1 μCi/ml myo-[^3H] inositol was added to each well. After 48 hours labeling, the cells were washed once with 0.5 ml DMEM containing 25 mM HEPES and 10 mM LiCl, then preincubated with the medium for 30 min (antagonists were included in this period if tested). At the end of the preincubation, the medium was removed, the cells were then incubated with test compounds (in presence of antagonists if needed) for 30 min. The reaction was terminated by removal of the incubation solution and addition of 0.5 ml ice-cold 5% PCA, followed by 15 to 30 min incubation on ice. 200 μl of 0.5 M Tes/1.5 M K2CO3 was added to each well to neutralize to pH 7, and plates were left on ice for another 15 to 30 min to precipitate all salts. The liquid and solid phases were separated by centrifugation.
A portion (350 μl) of the upper aqueous phase was applied to Dowex AG-1X8 (formate form, 100-200 mesh) columns. The columns were then washed stepwise with 10 ml of water and 10 ml of 25 mM ammonium formate to remove free myo-[^3H]inositol and deacylated phosphoinositol, respectively. Finally 10 ml of 0.2 M ammonium formate solution was applied to the columns to elute [^3H] inositol monophosphate ([^3H] IP1) directly into scintillation vials. Of this eluate, 1 ml was used to determine radioactivity by scintillation counting.
A 3-parameter logistic function is used to generate estimate of EC50/IC50.

[2] = test system: food intake in male Sprague-Dawley rats; assay: Effects of Compounds on Feeding Behavior in Rats (food intake, 24 hr fast); assay type: in vivo; conditions: Rattus norvegicus, dose giving 50% reduction in food intake
Procedure: Effects of Compounds on Feeding Behavior in Rats
Eight (8) male Sprague-Dawley rats weighing 150-180 g were separated into individual cages and acclimated to a powdered diet for 2 weeks. During this period and throughout the test procedure, the food cup and the animals were weighed daily. Following the acclimation period, animals were fasted for 24 hours and then injected with either vehicle or one of 4 doses of the test compound. Food intake was assessed at 2 and 24 hours following compound administration. Compounds to be evaluated were injected 1-2× per week until all animals had received all doses of the test compound. The order of doses were chosen using to a modified Latin Square design. Additional studies may be conducted in satiated rats at the start of the dark cycle. Compounds were injected i.p, s.c. or p.o. At the end of the study effects of the test compound on food intake was evaluated using a repeated measures ANOVA. Data were collected were 2 hour food intake (g). Data were subjected to one-way ANOVA with posthoc t-tests to assess group differences. Where appropriate, ED50 values were calculated.

[3] = read-out: 5HT2C % Emax (5HT, 100%)
[4] = CHO cells expressing human 5-HT2C, read-out: Stimulation of IP3 (EC50)
[5] = read-out: 5HT2C Affinity DOI/Agonist binding (Ki), [125I] DOI agonist binding

Row | SMILES | Ki [1] [nM] | Emax (human 5-HT2C receptor; [3]) [%] | EC50 (human 5-HT2C receptor; [4]) [nM] | Ki [1, 5] [nM] | other results
1 | O=C1Nc2ccc(Cl)cc2N2CCNC[C@H]12 (as salt: hydrochloride) [Example 12, (R)-9-Chloro-2,3,4,4a-Tetrahydro-1H-Pyrazino[1,2a]Quinoxalin-5(6H)-One] | – | – | – | – | melting point: 146 to 149 °C
2 | Clc1cc2c(cc1Cl)N1CCNC[C@@H]1CN2 (single isomer, unassigned) [Example 5, dihydrochloride] | 7 | 100 | – | – | EC50 (human 5-HT2C receptor): 33.8 nM
3 | Clc1cc2c(cc1Cl)N1CCNC[C@H]1CN2 (single isomer, unassigned) [Example 6, dihydrochloride] | 8 | 77 | – | – | EC50 (human 5-HT2C receptor): 23.2 nM
4 | O=C1Nc2cc(Cl)c(Cl)cc2N2CCNCC12 (centres unmarked) [Example 1, 8,9-Dichloro-2,3,4,4a-Tetrahydro-1H-Pyrazino[1,2-a]Quinoxalin-5(6H)-One] | 4.33 | 108 | 12 | – | ED50 ([2]; ip): 1.91 mg/kg; ED50 ([2]; po): 9.73 mg/kg
5 | O=C1Nc2cc(Cl)c(Cl)cc2N2CCNC[C@H]12 [Example 2, (R)-8,9-Dichloro-2,3,4,4a-Tetrahydro-1H-Pyrazino[1,2-a]Quinoxalin-5(6H)-One] | 4.18 | 112 | 7.92 | – | ED50 ([2]; ip): 1.99 mg/kg
6 | O=C1Nc2cc(Cl)c(Cl)cc2N2CCNC[C@@H]12 [Example 3, (S)-8,9-Dichloro-2,3,4,4a-Tetrahydro-1H-Pyrazino[1,2-a]Quinoxalin-5(6H)-One] | – | 89 | 290 | 66.4 | –
7 | Clc1cc2c(cc1Cl)N1CCNCC1CN2 (centres unmarked) [Example 4, 8,9-Dichloro-2,3,4,4a,5,6-Hexahydro-1H-Pyrazino[1,2-a]Quinoxaline, dihydrochloride] | – | 99 | – | 1 | EC50 (human 5-HT2C receptor): 7.32 nM
8 | O=C1Nc2cc(C(F)(F)F)c(Cl)cc2N2CCNCC12 (centres unmarked) [Example 7, 9-Chloro-8-Trifluoromethyl-2,3 4,4a-Tetrahydro-1H-Pyrazino[1,2-a]-Quinoxalin-5(6H)-One, Hydrochloride] | 8 | 100 | 97.3 | – | –
9 | O=C1Nc2cc(C(F)(F)F)c(Cl)cc2N2CCNC[C@@H]12 [Example 8, (S)-9-Chloro-8-Trifluoromethyl-2,3,4,4a-Tetrahydro-1H-Pyrazino[1,2-a]-Quinoxalin-5(6H)-One. Hydrochloride] | – | 85 | 2610 | 516 | –
10 | O=C1Nc2cc(C(F)(F)F)c(Cl)cc2N2CCNC[C@H]12 [Example 9, (R)-9-Chloro-8-Trifluoromethyl-2,3,4,4a-Tetrahydro-1H-Pyrazino[1,2-a]-Quinoxalin-5(6H)-One, Hydrochloride] | – | 100 | 18.8 | 25 | –
11 | O=C1Nc2ccc(Cl)c(Cl)c2N2CCNCC12 (centres unmarked) [Example 10, 9,10-Dichloro-2,3.4,4a-Tetrahydro-1H-Pyrazino[1,2-a]-Quinoxalin-5(6H)-One, Hydrochloride] | 1040 | – | – | – | –
12 | Cl.O=C1Nc2c(Cl)cc(Cl)cc2N2CCNCC12 (centres unmarked) [Example 11, 7,9-Dichloro-2,3,4,4A-Tetrahydro-1H-Pyrazino[1,2-a]Quinoxalin-5(6H)-One, Hydrochloride] | – | – | – | 19.8 | Emax (human 5-HT2C receptor; read-out: 5HT2C % Emax (5HT, 100%) at single concentration): 73%; ED50 ([2]; ip): 9.99 mg/kg
13 | O=C1Nc2ccc(Cl)cc2N2CCNC[C@H]12 [Example 12, (R)-9-Chloro-2,3,4,4a-Tetrahydro-1H-Pyrazino[1,2a]Quinoxalin-5(6H)-One] | 9 | 95 | – | – | EC50 (human 5-HT2C receptor): 30 nM
14 | O=C1Nc2cc(F)c(F)cc2N2CCNCC12 (centres unmarked) [Example 13, 8,9-Difluoro-2,3,4,4a-Tetrahydro-1H-Pyrazino[1,2-a]Quinoxalin-5(6H)-One] | – | – | – | 91 | –
15 | CSc1ccc2c(c1)C(N1CCN(C)CC1)Cc1ccccc1S2 (centres unmarked) [Methiothepin, reference compound] | – | – | – | – | Ki ([1]; reference compounds, [125I] DOI binding, CHO cell membranes, read-out: Ki value and 95% confidence interval): 4.6 nM
16 | COc1cc(CC(C)N)c(OC)cc1I (centres unmarked) [[^125I] DOI, reference compound] | – | – | – | – | Kd ([1]; read-out: dissociation constant, KD of [125I] DOI at the human serotonin 5HT2C receptor, saturation binding with increasing concentrations of [125I] DOI): 0.4 nM
